Non-standard residues stand in square brackets, D forms with d. Residues, ends and D or L forms follow the SMILES beside them. Sar = CNCC(=O)O
Experiments:
mouse = assay: acute toxicity test; type: in vivo; settings: intravenously injected, 100 mg/Kg
platelet aggregation = settings: times as strong as RGDS; cited from earlier work
[1] = test system: platelets activated by ADP; settings: 400 μM; cited from earlier work

Molecule: C[C@H](NC(=O)[C@H](CO)NC(=O)[C@@H]1CCCN1)C(=O)N(C)CC(=O)N[C@@H](CC(=O)O)C(=O)N[C@@H](Cc1c[nH]c2ccccc12)C(=O)O [Example 1, Pro-Ser-Ala-Sar-Asp-Trp-OH] (H-PSA[Sar]DW-OH)
- acute toxicity (mouse): no toxicity was observed

Molecule: arginine-glycine-aspartic acid-phenylalanine [RGDF]
- platelet aggregation-inhibiting activity relative to RGDS (platelet aggregation): 4-5 times

Molecule: glycine-arginine-glycine-aspartic acid-serine-proline [GRGDSP]
- inhibition of aggregation of platelets activated by ADP [1]: completely inhibited

Reference: US5721213A, “Peptides, active as inhibitors of platelet aggregation” (Nippon Steel Corporation, priority 1993, dated 1998)
